The test system of this assay is HBeAg level in HepDES19 cells (surrogate marker for HBV cccDNA). As to the kind of experiment: Engineered HepDES19 primary screen assay (HBeAg as surrogate marker for cccDNA). Type of assay: cell-based. The settings on record: Hepatitis B virus, read-out: IC50 (HBeAg level, HepDES19 primary screen assay). The text has this: The assay was employed to screen for novel cccDNA inhibitors. HepDES19 is a cccDNA-producing cell line. In this cell line, HBeAg in the cell culture supernatant as surrogate marker, as HBeAg production depends on cccDNA level and activity. HepDES19 is an engineered cell line which contains a 1.1 unit length HBV genome, and pgRNA transcription from the transgene is controlled by Tetracycline (Tet). In the absence of Tet, pgRNA transcription will be induced, but HBV e antigen (HBeAg) could not be produced from this pgRNA due to very short leader sequence before the HBeAg start codon and the start codon is disrupted. Only after cccDNA is formed, the missing leader sequence and start codon mutation would be restored from the 3′-terminal redundancy of pgRNA, and then HBeAg could be synthesized. Therefore, HBeAg could be used as a surrogate marker for cccDNA (Zhou, T. et al., Antiviral Res.(2006), 72(2), 116-124; Guo, H. et al., J. Virol. (2007), 81(22), 12472-12484).
HepDES19 cells were seeded at 2×10^6 cells per T150 flask and cultured with the culture medium (Dulbecco's Modified Eagle Medium: Nutrient Mixture F-12 [DMEM-F12, Gibco Cat. 11320-82], 10% Fetal Bovine Serum [FBS, Clontech Cat. 631101], 0.1 mM Non-Essential Amino Acids Solution [NEAA, Gibco Cat. 11140-050], 50 μg/mL Penicillin-Streptomycin [PS, Invitrogen Cat. 15140-163], 500 μg/mL Geneticin [G418, Invitrogen Cat. 10131-027]) containing 3 μg/mL Tet (Sigma, Cat. 87128) for 5 days. Cells were then seeded at 4×10^6 cells per T150 in the same culture medium as described above in the absence of Tet for 8 days. Cells were then harvested and frozen at density of 2×10^6 cells per mL. For compound testing, the frozen cells were thawed and seeded into 96-well plates at a density of 6 ×10^4 cells per well. At 24hours after seeding, half log serial dilutions of compounds made with Dimethyl sulfoxide (DMSO, Sigma, Cat. D2650) were further diluted with the same culture medium as described above before they were added to the cells to reach desired final compound concentrations and 1% DMSO concentration. Plates were then incubated at 37° C. for another 5 days before measurement of HBeAg level and cell viability. Intracellular HBeAg level were measured with enzyme-linked immunosorbent assay (ELISA) kit (Shanghai Kehua Diagnostic Medical Products Co., Ltd). Cell viability was assessed using Cell Counting Kit-8 (DonJindo, Cat. CK04-20). IC50 values were derived from the dose-response curve using 4 parameter logistic curve fit method.
The compounds of the present invention were tested for their capacity to inhibit extracellular HBeAg level as described herein.

Where [1] appears, read: 120 h, HepDES19 cells, 5 days incubation with compound, HBeAg ELISA.

pIC50: −log10 of the molar value. Like-named read-outs stand apart in the source and are kept apart here.

On to `CC1NC(n2cnc(Br)c2)=Nc2cc(C(F)(F)F)ccc21` (stereo not drawn) [Example 30, 2-(4-bromoimidazol-1-yl)-4-methyl-7-(trifluoromethyl)-3,4-dihydroquinazoline], for which the pIC50 under setting [1] is 6.11. On the same count and under the same terms, the figure for `COc1ccc(C2=Nc3c(Cl)cccc3C(C(=O)O)N2)cn1` (stereo not drawn) [Example 8, 8-chloro-2-(6-methoxy-3-pyridyl)-3,4-dihydroquinazoline-4-carboxylic Acid] is 5.04; for `CC1NC(c2ccc(OCCOCC(=O)O)cc2)=Nc2cc(C(F)(F)F)ccc21` (stereo not drawn) [Example 20, 2-[2-[4-[4-methyl-7-(trifluoromethyl)-3,4-dihydroquinazolin-2-yl]phenoxy]ethoxy]acetic Acid] it is 5.70; for `NC(=O)C1NC(c2cccc(Br)c2)=Nc2cc(C(F)(F)F)ccc21` (stereo not drawn) [Example 15, 2-(3-bromophenyl)-7-(trifluoromethyl)-3,4-dihydroquinazoline-4-carboxamide] it is 6.59. `CC1(C)NC(c2ccc(Br)cc2)=Nc2c(Cl)cccc21` [Example 34, 2-(4-bromophenyl)-8-chloro-4,4-dimethyl-3H-quinazoline hydrofluoride]: under setting [1], the pIC50 was 5.24. As for `CC1NC(c2ccc(OCCO[C@H]3C[C@@H](C(=O)O)C3)cc2)=Nc2c(Cl)cccc21` (stereo partly drawn) [Example 21, cis-3-[2-[4-(8-chloro-4-methyl-3,4-dihydroquinazolin-2-yl)phenoxy]ethoxy]cyclobutanecarboxylic Acid], the pIC50 under setting [1] is 5.99.

Regarding `CC1NC(c2ccc(OCCO)cc2)=Nc2c(Cl)cccc21` (stereo not drawn) [Example 28, 2-[4-(8-chloro-4-methyl-3,4-dihydroquinazolin-2-yl)phenoxy]ethanol], the negative logarithm of the IC50 (pIC50) under setting [1] was 5.32. On to `OCCOc1ccc(C2=Nc3c(Cl)cccc3CN2)cc1` [Example 27, 2-[4-(8-chloro-3,4-dihydroquinazolin-2-yl)phenoxy]ethanol], for which the pIC50 under setting [1] was 4.94. Still for that read-out and setting: the figure for `CC1c2ccc(C(F)(F)F)cc2N=C(c2cccc(Br)c2)N1CCO` (stereo not drawn) [Example 25, 2-[2-(3-bromophenyl)-4-methyl-7-(trifluoromethyl)-4H-quinazolin-3-yl]ethanol] is 5.02.

On to `CC1c2cccc(Cl)c2N=C(c2ccc(OCCOCC(=O)O)cc2)N1C` (stereo not drawn) [Example 26, 2-[2-[4-(8-chloro-3,4-dimethyl-4H-quinazolin-2-yl)phenoxy]ethoxy]acetic acid], for which the pIC50 under setting [1] was 5.26.

With `CC1NC(c2ccc(Br)cc2OCCOC2CC(C(=O)O)C2)=Nc2c(Cl)cccc21` (stereo not drawn) [Example 37, 3-[2-[5-bromo-2-(8-chloro-4-methyl-3,4-dihydroquinazolin-2-yl)phenoxy]ethoxy]cyclobutanecarboxylic Acid], the pIC50 under setting [1] was 5.71. On the same count and under the same terms, under `OCC1NC(c2ccc(Br)cc2)=Nc2c(Cl)cccc21` (stereo not drawn) [Example 38, [2-(4-bromophenyl)-8-chloro-3,4-dihydroquinazolin-4-yl]methanol] stands 5.27. Regarding `CC1NC(c2ccc(OCCOCC(=O)O)cc2)=Nc2c(Cl)cccc21` (stereo not drawn) [Example 23, 2-[2-[4-(8-chloro-4-methyl-3,4-dihydroquinazolin-2-yl)phenoxy]ethoxy]acetic Acid], the pIC50 under setting [1] is 5.75.

For the compound `CC1NC(c2nc(Br)cs2)=Nc2c(Cl)cccc21` (stereo not drawn) [Example 31, 4-bromo-2-(8-chloro-4-methyl-3,4-dihydroquinazolin-2-yl)thiazole], under setting [1], the pIC50 was 5.69.

Take `CC1c2ccc(C(F)(F)F)cc2N=C(c2cccc(Br)c2)N1C` (stereo not drawn) [Example 24, 2-(3-bromophenyl)-3,4-dimethyl-7-(trifluoromethyl)-4H-quinazoline]: the pIC50 under setting [1] was 5.68. Same read-out and setting: the figure for `CC1(C(=O)O)NC(c2ccc(Br)cc2)=Nc2c(Cl)cccc21` (stereo not drawn) [Example 11, 2-(4-bromophenyl)-8-chloro-4-methyl-3H-quinazoline-4-carboxylic Acid] is 6.89. Same read-out and setting: the figure for `CCOc1ccc(C2=Nc3c(Cl)cccc3C(C(=O)O)N2)cn1` (stereo not drawn) [Example 9, 8-chloro-2-(6-ethoxy-3-pyridyl)-3,4-dihydroquinazoline-4-carboxylic Acid] is 6.35; for `O=C(C1NC(c2ccc(Br)cc2)=Nc2cc(C(F)(F)F)ccc21)N1CCOCC1` (stereo not drawn) [Example 17, [2-(4-bromophenyl)-7-(trifluoromethyl)-3,4-dihydroquinazolin-4-yl]-morpholino-methanone] it is 5.78.

On to `O=C(O)C1NC(c2ccc(N3CCCC3)nc2)=Nc2c(Cl)cccc21` (stereo not drawn) [Example 10, 8-chloro-2-(6-pyrrolidin-1-yl-3-pyridyl)-3,4-dihydroquinazoline-4-carboxylic Acid], for which the pIC50 under setting [1] was 7.30. On the same count and under the same terms, under `CC1NC(c2cccc(Br)c2)=Nc2cc(C(F)(F)F)ccc21` (stereo not drawn) [Example 33, 2-(3-bromophenyl)-4-methyl-7-(trifluoromethyl)-3,4-dihydroquinazoline] stands 6.07. Consider `O=C(NCCCl)C1NC(c2ccc(Br)cc2)=Nc2c(Cl)cccc21` (stereo not drawn) [Example 18, 2-(4-bromophenyl)-8-chloro-N-(2-chloroethyl)-3,4-dihydroquinazoline-4-carboxamide], for which the pIC50 (HepDES19, 120 h) was 5.59. `COc1ccc(C2=Nc3c(Cl)cccc3C(C(N)=O)N2)cc1` (stereo not drawn) [Example 14, 8-chloro-2-(4-methoxyphenyl)-3,4-dihydroquinazoline-4-carboxamide]: the pIC50 under setting [1] is 5.61. `Clc1cccc2c1N=C(c1ccc(Br)cc1)NC2C1CC1` (stereo not drawn) [Example 35, 2-(4-bromophenyl)-8-chloro-4-cyclopropyl-3,4-dihydroquinazoline]: the negative-log IC50 (pIC50) under setting [1] was 6.39. Consider `COc1ccc2c(c1)CCN(C1=Nc3c(Cl)cccc3C(C)N1)C2=O` (stereo not drawn) [Example 29, 2-(8-chloro-4-methyl-3,4-dihydroquinazolin-2-yl)-6-methoxy-3,4-dihydroisoquinolin-1-one], for which the pIC50 under setting [1] is 7.57.

As a reminder, the pIC50 is −log10 of the IC50, conventionally taken in molar units.
